The results in this text go back to US20160046592A1, “PHARMACEUTICAL COMPOSITION FOR THE TREATMENT OF DIABETES” (Ajinomoto Co., Inc., priority 2013, published 2016).

Molecules are shown by their SMILES. Counter-ions that a name gives are not always drawn.

The target of one assay is T1, PPAR-α (Homo sapiens, UniProt Q07869).
T1 construct: expressed in transfected cells; host or cells: CV-1 (African green monkey kidney)
T1 sequence (Q07869 167-468): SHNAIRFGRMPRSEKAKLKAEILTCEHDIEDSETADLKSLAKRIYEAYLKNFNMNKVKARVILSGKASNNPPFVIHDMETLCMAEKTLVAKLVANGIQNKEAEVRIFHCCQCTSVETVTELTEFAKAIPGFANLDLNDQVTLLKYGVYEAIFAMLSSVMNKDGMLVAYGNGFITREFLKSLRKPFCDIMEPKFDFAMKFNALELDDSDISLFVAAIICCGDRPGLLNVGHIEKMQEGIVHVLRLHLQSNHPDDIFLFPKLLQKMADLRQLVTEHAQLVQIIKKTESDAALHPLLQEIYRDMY
Description: Measurement of PPAR-α activity (GAL4 luciferase reporter assay in CV-1 cells). It is filed as cell-based. The settings on record: 100(A/B): A = maximum PPAR-α activity of test compound at 3, 10, 30 and 100 μM, B = activity of the compound of WO/2011/058154 at 100 μM, 18 to 20 hours. Here is the method: The PPAR-α activity was measured according to the published article (THE JOURNAL OF BIOLOGICAL CHEMISTRY Vol. 270, No 0.22: 12953-12956, 1995).
Plasmids used for the PPAR-α activity measurement were constructed as follows. A luciferase expression plasmid (UAS×5-TK-Luc) used was obtained by introducing a sequence in which five yeast GAL4-binding sequences are linked in tandem into a portion upstream of a thymidine kinase promoter of pTAL-Luc (Takara Bio Inc., 6252-1). A PPAR-α receptor expression plasmid (hGR-GAL4-hPPARα) used was obtained by introducing a human GR N-terminal region (1-76aa), a yeast GAL4 DNA-binding region (1-147aa), and a PPARα ligand-binding region (167-468aa) between Not I and Sal I sites of pExchange-1 Core Vector (Invitrogen, 211176).
A reporter assay was conducted by the following method using African green monkey kidney-derived CV-1 cells. The CV-1 cells were seeded in a 96-well plate (Thermo Fisher Scientific K.K., 4938) at 2×10^4 cells/well by using a 10% FBS-containing DMEM (NACALAI TESQUE, INC., 0845874) medium. After culturing under conditions of 37° C. and 5% CO2 for 2 hours, the cells were transfected with the plasmids. The transfection was conducted by using Lipofectamine LTX (Invitrogen, 15338-100) according to the attached manual. The plasmid solution was prepared by adding a mixture solution of the luciferase expression plasmid and the PPAR-α receptor expression plasmid to OPTI-MEM I (Invitrogen, 11058-021). After the transfection, the test compound was added, and the cells were cultured at 37° C. in the presence of 5% CO2 for 18 to 20 hours. After the culturing, the luciferase activity was measured with Luminescensor JNR (ATTO) by using Bright-Glo (Promega, E2620).
The fold induction of PPAR-α by each test compound was calculated by the following method. A relative fold induction (%) of PPAR-α by the test compound was defined as 100 (A/B), where A represents the maximum value of the PPAR-α activities of the test compound at 3 μM, 10 μM, 30 μM, and 100 μM, and B represents the PPAR-α activity of the compound of WO/2011/058154 at 100 μM.
Background: In a reporter assay the amount or activity of a reporter protein is the signal.
`NC(=O)C1CC[C@@H](C(=O)O)N1C(=O)c1cccc(COc2ccc(-c3cc(F)c(F)c4ccoc34)cc2)c1` (single isomer, unassigned) [Example 76, (2S,5S) or (2S,5R)-5-Carbamoyl-1-[3-[[4-(4,5-difluorobenzofuran-7-yl)phenoxy]methyl]benzoyl]pyrrolidine-2-carboxylic Acid]: the “Relative fold induction (%) of PPAR α” value is listed as 42%.

Still in this assay, the particulars now being: 100(A/B): A = maximum PPAR-α activity of test compound at 3, 10, 30 and 100 μM, B = activity of the compound of WO/2011/058154 at 100 μM, 18 to 20 hours, read-out: Relative fold induction (%) of PPAR α.
In the case of `CNCCN(CC(=O)O)C(=O)c1cccc(COc2ccc(-c3cc(F)c(F)cc3SC)cc2)c1` [Example 28, 2-[[3-[[4-(4,5-Difluoro-2-methylsulfanyl-phenyl)phenoxy]methyl]benzoyl]-[2-(methylamino)ethyl]amino]acetic Acid Trifluoroacetate], the Emax worked out at 10%.

Take `CSc1cc(F)c(F)cc1-c1ccc(OCc2cccc(C(=O)N(CCc3noc(C)n3)CC(=O)O)c2)cc1` [Example 60, 2-[[3-[[4-(4,5-Difluoro-2-methylsulfanyl-phenyl)phenoxy]methyl]benzoyl]-[2-(5-methyl-1,2,4-oxadiazol-3-yl)ethyl]amino]acetic Acid]: the Emax was 14%.

`CCNCCN(CC(=O)O)C(=O)c1cccc(COc2ccc(-c3cc(F)c(F)cc3SC)cc2)c1` [Example 43, 2-[[3-[[4-(4,5-Difluoro-2-methylsulfanyl-phenyl)phenoxy]methyl]benzoyl]-[2-(ethylamino)ethyl]amino]acetic Acid Trifluoroacetate]: the Emax came to 9%.

In the case of `CSc1cc(F)c(F)cc1-c1ccc(OCc2cccc(C(=O)N(CC(=O)O)Cc3ccon3)c2)cc1` [Example 66, 2-[[3-[[4-(4,5-Difluoro-2-methylsulfanyl-phenyl)phenoxy]methyl]benzoyl]-(isoxazol-3-ylmethyl)amino]acetic Acid], the Emax was determined as 22%.

As to `CSc1cc(F)c(F)cc1-c1ccc(OCc2cccc(C(=O)N(CC(=O)O)Cc3cn(C)cn3)c2)cc1` [Example 74, 2-[[3-[[4-(4,5-Difluoro-2-methylsulfanyl-phenyl)phenoxy]methyl]benzoyl]-[(1-methylimidazol-4-yl)methyl]amino]acetic Acid], the Emax stood at 16%.

For `O=C(O)[C@@H]1[C@H](O)CCN1C(=O)c1cccc(COc2ccc(-c3cc(F)c(F)c4ccoc34)cc2)c1` [Example 3, (2S,3R)-1-[3-[[4-(4,5-Difluorobenzofuran-7-yl)phenoxy]methyl]benzoyl]-3-hydroxy-pyrrolidine-2-carboxylic Acid], the Emax worked out at 11%.

As to `CSc1cc(F)c(F)cc1-c1ccc(OCc2cccc(C(=O)N(CCC(C)O)CC(=O)O)c2)cc1` (centres unmarked) [Example 21, 2-[[3-[[4-(4,5-Difluoro-2-methylsulfanyl-phenyl)phenoxy]methyl]benzoyl]-(3-hydroxybutyl)amino]acetic Acid], the Emax turned out to be 15%.

With `CO[C@H]1CCN(C(=O)c2cccc(COc3ccc(-c4cc(F)c(F)c5ccoc45)cc3)c2)[C@@H]1C(=O)O` [Example 78, (2S,3S)-1-[3-[[4-(4,5-Difluorobenzofuran-7-yl)phenoxy]methyl]benzoyl]-3-methoxy-pyrrolidine-2-carboxylic Acid], the Emax turned out to be 65%.

`CSc1cc(F)c(F)cc1-c1ccc(OCc2cccc(C(=O)N(CC(=O)O)Cc3nnc(C)o3)c2)cc1` [Example 73, 2-[[3-[[4-(4,5-Difluoro-2-methylsulfanyl-phenyl)phenoxy]methyl]benzoyl]-[(5-methyl-1,3,4-oxadiazol-2-yl)methyl]amino]acetic Acid]: the Emax amounted to 16%.

With `CSc1cc(F)c(F)cc1-c1ccc(OCc2cccc(C(=O)N3C[C@H](O)C[C@H]3C(=O)O)c2)cc1` [Example 29, (2S,4R)-1-[3-[[4-(4,5-Difluoro-2-methylsulfanyl-phenyl)phenoxy]methyl]benzoyl]-4-hydroxy-pyrrolidine-2-carboxylic Acid], the Emax came to 22%.

For `CSc1cc(F)c(F)cc1-c1ccc(OCc2cccc(C(=O)N(CCNS(C)(=O)=O)CC(=O)O)c2)cc1` [Example 17, 2-[[3-[[4-(4,5-Difluoro-2-methylsulfanyl-phenyl)phenoxy]methyl]benzoyl]-[2-(methanesulfonamido)ethyl]amino]acetic Acid], the Emax is 13%.

As for `CSc1cc(F)c(F)cc1-c1ccc(OCc2cccc(C(=O)N(CC(=O)O)[C@H]3CC[C@@H](N)CC3)c2)cc1` [Example 48, 2-[(4-Aminocyclohexyl)-[3-[[4-(4,5-difluoro-2-methylsulfanyl-phenyl)phenoxy]methyl]benzoyl]amino]acetic Acid Trifluoroacetate], the Emax amounted to 4%.

As to `CSc1cc(F)c(F)cc1-c1ccc(OCc2cccc(C(=O)N(CC(=O)O)Cc3noc(C)n3)c2)cc1` [Example 69, 2-[[3-[[4-(4,5-Difluoro-2-methylsulfanyl-phenyl)phenoxy]methyl]benzoyl]-[(5-methyl-1,2,4-oxadiazol-3-yl)methyl]amino]acetic Acid], the Emax came out at 23%.

As to `COCCOCCN(CC(=O)O)C(=O)c1cccc(COc2ccc(-c3cc(F)c(F)cc3SC)cc2)c1` [Example 49, 2-[[3-[[4-(4,5-Difluoro-2-methylsulfanyl-phenyl)phenoxy]methyl]benzoyl]-[2-(2-methoxyethoxy)ethyl]amino]acetic Acid], the Emax was 29%.

Regarding `CNS(=O)(=O)CCN(CC(=O)O)C(=O)c1cccc(COc2ccc(-c3cc(F)c(F)cc3SC)cc2)c1` [Example 56, 2-[[3-[[4-(4,5-Difluoro-2-methylsulfanyl-phenyl)phenoxy]methyl]benzoyl]-[2-(methylsulfamoyl)ethyl]amino]acetic Acid], the Emax stood at 8%.

Turning to `O=C(O)[C@@H]1[C@@H](O)CCN1C(=O)c1cccc(COc2ccc(-c3cc(F)c(F)c4ccoc34)cc2)c1` [Example 2, (2S,3S)-1-[3-[[4-(4,5-Difluorobenzofuran-7-yl)phenoxy]methyl]benzoyl]-3-hydroxy-pyrrolidine-2-carboxylic Acid], the Emax came to 5%.

As for `COC(C)CN(CC(=O)O)C(=O)c1cccc(COc2ccc(-c3cc(F)c(F)cc3SC)cc2)c1` (centres unmarked) [Example 45, 2-[[3-[[4-(4,5-Difluoro-2-methylsulfanyl-phenyl)phenoxy]methyl]benzoyl]-(2-methoxypropyl)amino]acetic Acid], the Emax is 25%.

Regarding `CSc1cc(F)c(F)cc1-c1ccc(OCc2cccc(C(=O)N(CCN3CCCC3)CC(=O)O)c2)cc1` [Example 40, 2-[[3-[[4-(4,5-Difluoro-2-methylsulfanyl-phenyl)phenoxy]methyl]benzoyl]-(2-pyrrolidin-1-ylethyl)amino]acetic Acid Trifluoroacetate], the Emax worked out at 9.4%.

`N#CCCN(CC(=O)O)C(=O)c1cccc(COc2ccc(-c3cc(F)c(F)c4ccoc34)cc2)c1` [Example 75, 2-[2-Cyanoethyl-[3-[[4-(4,5-difluorobenzofuran-7-yl)phenoxy]methyl]benzoyl]amino]acetic Acid]: the Emax is 38%.

For the compound `CSc1cc(F)c(F)cc1-c1ccc(OCc2cccc(C(=O)N(CC(=O)O)Cc3ccnn3C)c2)cc1` [Example 55, 2-[[3-[[4-(4,5-Difluoro-2-methylsulfanyl-phenyl)phenoxy]methyl]benzoyl]-[(2-methylpyrazol-3-yl)methyl]amino]acetic Acid], the Emax turned out to be 11%.

As for `CSc1cc(F)c(F)cc1-c1ccc(OCc2cccc(C(=O)N(CC(=O)O)C3CCNCC3)c2)cc1` [Example 36, 2-[[3-[[4-(4,5-Difluoro-2-methylsulfanyl-phenyl)phenoxy]methyl]benzoyl]-(4-piperidyl)amino]acetic Acid Trifluoroacetate], the Emax was 8%.

Take `CSc1cc(F)c(F)cc1-c1ccc(OCc2cccc(C(=O)N(CC(=O)O)CC3CCN(C)CC3)c2)cc1` [Example 37, 2-[[3-[[4-(4,5-Difluoro-2-methylsulfanyl-phenyl)phenoxy]methyl]benzoyl]-[(1-methyl-4-piperidyl)methyl]amino]acetic Acid Trifluoroacetate]: the Emax turned out to be 10%.
